Data on two compounds can be found in ChEMBL document CHEMBL5500396, “Discovery, Multiparametric Optimization, and Solid-State Driven Identification of CHF-6550, a Novel Soft Dual Pharmacology Muscarinic Antagonist and β2 Agonist (MABA) for the Inhaled Treatment of Respiratory Diseases” (J Med Chem, 2024).

Data set [1] can be described thus: in vivo. The note with it: male, Dunkin-Hartley, guinea pig, inhaled or intranasal, 1 mM.
Description: Toxicity in male albino Dunkin-Hartley guinea pig model assessed as inhibition of carbachol-induced salivation at 1 mM, preadministered with compound for 10 mins via aerosol followed by anesthesia treatment 3 hrs post compound addition and further treated with carbachol and measured every 5 mins for 4 times
Data set [2] has as its target Sodium channel protein type 5 subunit alpha (Homo sapiens, UniProt Q14524).
Description: Inhibition of human Nav1.5
In data set [3] the test system is Cavia porcellus. Nature of the data set: Bronchodilating effect in histamine induced male albino Dunkin-Hartley guinea pig model assessed as maximal efficacy at 0.3 nmol/kg, IT(Intratracheal) administered with compound followed by histamine addition at 5 to 30 mins and measured 1 hrs post compound treatment relative to control.
Data set [4] is filed under the species Cavia porcellus. Nature of the data set: animal or person. The note with it: albino Dunkin-Hartley, 16 h, read-out: INH.
Description: Inhibition of acetylcholine induced bronchoconstriction in male albino Dunkin-Hartley guinea pig model at 0.3 nmol/kg, IT(Intratracheal) preadministered with compound followed by acetylcholine addition at 5 to 30 mins in presence of ICI-118551 and measured 16 hrs post compound treatment relative to control
For data set [5], the species on record is Cavia porcellus. Nature of the data set: animal or person. The note with it: albino Dunkin-Hartley, 1 h, read-out: INH.
Description: Inhibition of acetylcholine induced bronchoconstriction in male albino Dunkin-Hartley guinea pig model at 0.3 nmol/kg, IT(Intratracheal) preadministered with compound followed by acetylcholine addition at 5 to 30 mins in presence of ICI-118551 and measured 1 hrs post compound treatment relative to control
Data set [6] in a line: in vivo. The note with it: male, Dunkin-Hartley, guinea pig, inhaled or intranasal, 3 mM.
Description: Toxicity in male albino Dunkin-Hartley guinea pig model assessed as inhibition of carbachol-induced salivation at 3 mM, preadministered with compound for 10 mins via aerosol followed by anesthesia treatment 3 hrs post compound addition and further treated with carbachol and measured every 5 mins for 4 times
The species named for data set [7] is Cavia porcellus. Description: animal or person. The note with it: albino Dunkin-Hartley, 1 h.
Description: Bronchodilating effect in acetylcholine induced male albino Dunkin-Hartley guinea pig model assessed as maximal efficacy at 0.3 nmol/kg, IT(Intratracheal) administered with compound followed by acetylcholine addition at 5 to 30 mins in presence of ICI-118551 and measured 1 hrs post compound treatment relative to control
A short description of data set [8]: Stability in guinea pig lung S9 fraction at 1 uM incubated for 60 mins by LC-MS/MS analysis.
The nature of data set [9]: in vitro. The note with it: human, hepatocytes.
Description: Metabolic stability in human hepatocytes assessed as clearance measured per 10^6 cells at 1 uM incubated for 90 mins by LC-MS/MS analysis
Data set [10] can be described thus: in vitro. The note with it: rat, hepatocytes.
Description: Metabolic stability in rat hepatocytes assessed as clearance measured per 10^6 cells at 1 uM incubated for 90 mins by LC-MS/MS analysis
Data set [11] deals with Voltage-gated inwardly rectifying potassium channel KCNH2 (Homo sapiens, UniProt Q12809).
Description: Inhibition of human ERG by patch clamp assay
Data set [12] relates to Cavia porcellus. Nature of the data set: Bronchodilating effect in acetylcholine induced male albino Dunkin-Hartley guinea pig model assessed as maximal efficacy at 0.3 nmol/kg, IT(Intratracheal) administered with compound followed by acetylcholine addition at 5 to 30 mins and measured 1 hrs post compound treatment relative to control.
For data set [13], the system named is Cavia porcellus. Description: Inhibition of histamine induced bronchoconstriction in male albino Dunkin-Hartley guinea pig model at 0.3 nmol/kg, IT(Intratracheal) preadministered with compound followed by histamine addition at 5 to 30 mins and measured 16 hrs post compound treatment relative to control. The note with it: read-out: INH.
The subject of data set [14] is Cavia porcellus. Description: Inhibition of acetylcholine induced bronchoconstriction in male albino Dunkin-Hartley guinea pig model at 0.3 nmol/kg, IT(Intratracheal) preadministered with compound followed by acetylcholine addition at 5 to 30 mins and measured 1 hrs post compound treatment relative to control. The note with it: read-out: INH.
Data set [15] in a line: in vivo. The note with it: rat, iv, 125 ug.
Description: Clearance in rat at 125 ug, iv measured after 1 hrs by LC-MS analysis
For the next data set, the system named is Trachea. Nature of the data set: Inhibition of carbachol-induced smooth muscle contraction in male albino Dunkin-Hartley guinea pig trachea. The note with it: Cavia porcellus, read-out: pIC50 (converted).
Data set [16] is described as follows: in vitro. The note with it: guinea pig, plasma.
Description: Stability in guinea pig plasma assessed as half-life at 5 uM incubated for 120 mins by LC-MS/MS analysis
Data set [17] can be described thus: in vitro. The note with it: rat, plasma.
Description: Stability in rat plasma assessed as half-life at 5 uM incubated for 120 mins by LC-MS/MS analysis
The target in data set [18] is Beta-2 adrenergic receptor (Cavia porcellus, UniProt Q8K4Z4). Description: Agonist activity at beta2 adrenoceptor in male albino Dunkin-Hartley guinea pig trachea assessed as inhibition of histamine induced smooth muscle contraction.
Data set [19] in a line: in vivo. The note with it: rat, iv, 125 ug. The source holds these as a separate data set.
Description: Volume of distribution at steady state in rat at 125 ug, iv measured after 1 hrs by LC-MS analysis
Data set [20] concerns Cavia porcellus. Nature of the data set: Inhibition of acetylcholine induced bronchoconstriction in male albino Dunkin-Hartley guinea pig model at 0.3 nmol/kg, IT(Intratracheal) preadministered with compound followed by acetylcholine addition at 5 to 30 mins and measured 16 hrs post compound treatment relative to control. The note with it: read-out: INH.
The nature of data set [21]: Half-life in guinea pig at 3 nmol/kg, IT(Intratracheal) administered as dry powder. The note with it: in vivo, inhaled or intranasal.
Data set [22] addresses Voltage-dependent L-type calcium channel subunit alpha-1C (Homo sapiens, UniProt Q13936).
Description: Inhibition of human Cav1.2
The test system of data set [23] is Cavia porcellus. Description: Inhibition of histamine induced bronchoconstriction in male albino Dunkin-Hartley guinea pig model at 0.3 nmol/kg, IT(Intratracheal) preadministered with compound followed by histamine addition at 5 to 30 mins and measured 1 hrs post compound treatment relative to control. The note with it: read-out: INH.
Data set [24] is described as follows: in vitro. The note with it: human, plasma.
Description: Stability in human plasma assessed as half-life at 5 uM incubated for 120 mins by LC-MS/MS analysis
Data set [25] has as its target Beta-2 adrenergic receptor (Homo sapiens, UniProt P07550).
Description: Displacement of [125I]-Cyanopindolol from human beta2 adrenoceptor assessed as inhibition constant incubated for 1 hrs by Microbeta scintillation counter
Data set [26] in a line: in vivo. The note with it: male, Dunkin-Hartley, guinea pig, inhaled or intranasal, 0.3 mM.
Description: Toxicity in male albino Dunkin-Hartley guinea pig model assessed as inhibition of carbachol-induced salivation at 0.3 mM, preadministered with compound for 10 mins via aerosol followed by anesthesia treatment 3 hrs post compound addition and further treated with carbachol and measured every 5 mins for 4 times

Chain of Voltage-dependent L-type calcium channel subunit alpha-1C (Q13936 whole entry): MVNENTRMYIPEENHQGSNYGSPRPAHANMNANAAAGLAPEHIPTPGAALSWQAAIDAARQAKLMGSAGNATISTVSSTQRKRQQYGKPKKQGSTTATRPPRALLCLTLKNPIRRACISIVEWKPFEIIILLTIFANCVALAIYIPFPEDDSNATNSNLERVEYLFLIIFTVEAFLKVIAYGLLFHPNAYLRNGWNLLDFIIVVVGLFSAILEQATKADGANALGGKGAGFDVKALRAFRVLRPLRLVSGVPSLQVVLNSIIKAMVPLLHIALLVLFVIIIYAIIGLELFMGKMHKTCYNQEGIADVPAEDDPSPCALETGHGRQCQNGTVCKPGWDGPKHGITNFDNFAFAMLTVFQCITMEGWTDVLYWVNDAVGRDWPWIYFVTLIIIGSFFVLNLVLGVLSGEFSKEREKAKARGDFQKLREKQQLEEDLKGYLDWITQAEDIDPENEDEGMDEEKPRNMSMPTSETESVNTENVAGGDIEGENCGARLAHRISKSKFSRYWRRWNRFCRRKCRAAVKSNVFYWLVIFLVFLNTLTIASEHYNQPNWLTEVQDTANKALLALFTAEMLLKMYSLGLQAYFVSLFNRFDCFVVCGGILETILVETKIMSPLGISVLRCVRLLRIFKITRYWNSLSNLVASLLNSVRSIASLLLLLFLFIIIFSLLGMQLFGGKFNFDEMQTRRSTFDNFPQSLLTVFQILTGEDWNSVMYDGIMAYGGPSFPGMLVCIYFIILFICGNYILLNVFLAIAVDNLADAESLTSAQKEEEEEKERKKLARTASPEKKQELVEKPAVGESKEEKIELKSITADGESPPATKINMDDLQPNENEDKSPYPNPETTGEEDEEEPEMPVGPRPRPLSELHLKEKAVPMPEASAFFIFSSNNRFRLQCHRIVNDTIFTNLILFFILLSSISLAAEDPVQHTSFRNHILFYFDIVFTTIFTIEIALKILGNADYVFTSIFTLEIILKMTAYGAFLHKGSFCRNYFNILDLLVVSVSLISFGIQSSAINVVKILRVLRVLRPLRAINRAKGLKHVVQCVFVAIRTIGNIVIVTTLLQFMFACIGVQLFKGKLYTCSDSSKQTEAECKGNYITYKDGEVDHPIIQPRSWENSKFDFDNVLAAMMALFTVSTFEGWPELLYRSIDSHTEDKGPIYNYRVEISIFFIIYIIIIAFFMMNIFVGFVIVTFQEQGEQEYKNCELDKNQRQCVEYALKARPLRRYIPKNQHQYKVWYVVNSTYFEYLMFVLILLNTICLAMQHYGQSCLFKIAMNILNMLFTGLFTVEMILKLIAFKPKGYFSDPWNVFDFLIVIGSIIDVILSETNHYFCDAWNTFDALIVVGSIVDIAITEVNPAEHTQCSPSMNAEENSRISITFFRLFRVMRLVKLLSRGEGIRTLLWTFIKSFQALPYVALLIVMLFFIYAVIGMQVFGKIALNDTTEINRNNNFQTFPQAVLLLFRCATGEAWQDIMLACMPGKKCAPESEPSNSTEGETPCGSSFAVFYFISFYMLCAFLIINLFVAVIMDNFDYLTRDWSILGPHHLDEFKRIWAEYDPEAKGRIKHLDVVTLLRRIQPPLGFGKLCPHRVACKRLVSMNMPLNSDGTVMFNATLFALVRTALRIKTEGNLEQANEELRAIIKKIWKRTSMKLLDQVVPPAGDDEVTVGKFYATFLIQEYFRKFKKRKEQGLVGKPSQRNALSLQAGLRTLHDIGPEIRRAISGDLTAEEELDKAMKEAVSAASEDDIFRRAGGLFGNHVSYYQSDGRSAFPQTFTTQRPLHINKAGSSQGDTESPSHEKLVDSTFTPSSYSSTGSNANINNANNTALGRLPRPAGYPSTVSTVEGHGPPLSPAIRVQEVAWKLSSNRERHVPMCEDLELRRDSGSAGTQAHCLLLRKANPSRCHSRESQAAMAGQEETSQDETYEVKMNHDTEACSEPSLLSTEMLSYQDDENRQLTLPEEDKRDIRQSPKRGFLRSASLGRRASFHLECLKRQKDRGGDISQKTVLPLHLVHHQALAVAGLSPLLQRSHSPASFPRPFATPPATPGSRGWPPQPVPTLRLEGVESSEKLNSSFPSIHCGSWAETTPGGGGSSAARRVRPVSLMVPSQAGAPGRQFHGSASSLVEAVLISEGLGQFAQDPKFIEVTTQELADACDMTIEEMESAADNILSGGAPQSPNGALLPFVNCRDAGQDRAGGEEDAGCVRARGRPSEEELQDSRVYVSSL
Chain of Beta-2 adrenergic receptor (Homo sapiens, UniProt P07550) (P07550 whole entry): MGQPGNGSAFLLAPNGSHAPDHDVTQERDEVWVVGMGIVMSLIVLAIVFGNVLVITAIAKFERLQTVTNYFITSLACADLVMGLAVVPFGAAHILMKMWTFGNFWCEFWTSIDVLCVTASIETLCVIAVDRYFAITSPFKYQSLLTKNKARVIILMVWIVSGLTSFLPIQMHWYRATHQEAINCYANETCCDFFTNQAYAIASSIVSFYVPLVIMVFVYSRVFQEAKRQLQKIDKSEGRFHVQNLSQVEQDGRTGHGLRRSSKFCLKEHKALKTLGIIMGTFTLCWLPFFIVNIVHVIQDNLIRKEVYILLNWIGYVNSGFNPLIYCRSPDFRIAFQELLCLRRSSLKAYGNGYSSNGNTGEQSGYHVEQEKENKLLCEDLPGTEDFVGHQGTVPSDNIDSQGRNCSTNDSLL
Chain of Sodium channel protein type 5 subunit alpha (Q14524 whole entry): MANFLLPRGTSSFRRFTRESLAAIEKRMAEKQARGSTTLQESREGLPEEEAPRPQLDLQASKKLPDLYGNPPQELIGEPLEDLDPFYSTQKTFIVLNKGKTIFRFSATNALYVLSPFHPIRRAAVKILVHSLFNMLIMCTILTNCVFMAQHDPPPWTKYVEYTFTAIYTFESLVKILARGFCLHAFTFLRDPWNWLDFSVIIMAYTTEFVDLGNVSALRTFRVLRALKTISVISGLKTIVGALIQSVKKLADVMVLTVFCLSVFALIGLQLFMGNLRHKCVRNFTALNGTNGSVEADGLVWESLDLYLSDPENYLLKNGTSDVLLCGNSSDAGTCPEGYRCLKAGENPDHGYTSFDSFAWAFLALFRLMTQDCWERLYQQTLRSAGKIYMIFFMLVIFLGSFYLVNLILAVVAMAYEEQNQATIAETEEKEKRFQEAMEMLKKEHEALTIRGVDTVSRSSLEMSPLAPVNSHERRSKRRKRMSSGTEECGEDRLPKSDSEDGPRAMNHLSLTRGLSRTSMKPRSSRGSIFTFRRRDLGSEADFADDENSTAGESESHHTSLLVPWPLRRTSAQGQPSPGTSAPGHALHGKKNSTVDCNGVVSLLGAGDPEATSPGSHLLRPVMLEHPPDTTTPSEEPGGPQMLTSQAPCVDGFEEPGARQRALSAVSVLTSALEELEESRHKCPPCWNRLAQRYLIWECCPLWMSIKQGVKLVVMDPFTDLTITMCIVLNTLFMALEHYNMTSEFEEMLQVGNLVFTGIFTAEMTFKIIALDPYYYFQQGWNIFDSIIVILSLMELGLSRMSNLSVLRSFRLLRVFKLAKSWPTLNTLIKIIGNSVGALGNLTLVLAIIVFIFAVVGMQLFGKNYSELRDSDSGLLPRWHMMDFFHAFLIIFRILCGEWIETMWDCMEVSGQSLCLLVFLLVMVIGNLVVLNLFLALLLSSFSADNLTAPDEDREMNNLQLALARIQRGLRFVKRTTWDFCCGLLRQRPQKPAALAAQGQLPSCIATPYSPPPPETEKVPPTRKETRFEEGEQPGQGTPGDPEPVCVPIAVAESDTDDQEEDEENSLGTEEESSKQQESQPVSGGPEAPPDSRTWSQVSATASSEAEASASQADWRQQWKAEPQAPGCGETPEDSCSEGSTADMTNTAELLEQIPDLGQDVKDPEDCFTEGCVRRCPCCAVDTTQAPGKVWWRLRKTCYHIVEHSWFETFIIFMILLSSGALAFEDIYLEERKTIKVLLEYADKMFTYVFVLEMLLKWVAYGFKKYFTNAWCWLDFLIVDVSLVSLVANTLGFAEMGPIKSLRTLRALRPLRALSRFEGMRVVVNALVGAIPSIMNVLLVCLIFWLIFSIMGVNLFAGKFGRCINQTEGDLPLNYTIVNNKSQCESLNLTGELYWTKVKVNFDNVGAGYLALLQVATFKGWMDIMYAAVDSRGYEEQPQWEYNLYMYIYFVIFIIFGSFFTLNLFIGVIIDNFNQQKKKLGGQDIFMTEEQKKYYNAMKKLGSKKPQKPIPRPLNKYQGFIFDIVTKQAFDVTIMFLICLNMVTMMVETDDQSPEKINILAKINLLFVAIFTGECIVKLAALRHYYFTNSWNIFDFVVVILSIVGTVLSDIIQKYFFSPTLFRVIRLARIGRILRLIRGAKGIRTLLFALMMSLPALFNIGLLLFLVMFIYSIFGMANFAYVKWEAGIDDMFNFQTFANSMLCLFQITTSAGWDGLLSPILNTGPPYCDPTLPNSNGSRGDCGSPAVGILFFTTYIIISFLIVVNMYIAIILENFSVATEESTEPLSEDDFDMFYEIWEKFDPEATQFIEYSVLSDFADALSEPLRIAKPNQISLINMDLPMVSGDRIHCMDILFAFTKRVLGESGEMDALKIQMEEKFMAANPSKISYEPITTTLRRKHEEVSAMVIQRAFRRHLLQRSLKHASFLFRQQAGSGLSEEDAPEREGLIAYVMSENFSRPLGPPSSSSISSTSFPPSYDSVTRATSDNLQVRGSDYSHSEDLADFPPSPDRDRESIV
Chain of Beta-2 adrenergic receptor (Cavia porcellus, UniProt Q8K4Z4) (Q8K4Z4 whole entry): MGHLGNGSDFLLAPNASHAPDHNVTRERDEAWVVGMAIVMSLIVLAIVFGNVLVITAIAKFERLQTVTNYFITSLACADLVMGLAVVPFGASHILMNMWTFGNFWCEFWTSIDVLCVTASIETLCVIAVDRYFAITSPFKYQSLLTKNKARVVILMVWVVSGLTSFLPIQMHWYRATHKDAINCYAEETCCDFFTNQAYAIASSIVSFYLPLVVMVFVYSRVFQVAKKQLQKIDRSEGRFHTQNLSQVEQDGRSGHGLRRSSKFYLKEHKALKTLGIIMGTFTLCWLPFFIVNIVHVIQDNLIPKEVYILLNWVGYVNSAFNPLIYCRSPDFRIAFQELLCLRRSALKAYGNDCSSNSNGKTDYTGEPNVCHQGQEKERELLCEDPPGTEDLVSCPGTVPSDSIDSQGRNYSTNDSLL

As for `CN1CCC[C@@H](OC(=O)[C@](O)(c2ccccc2)c2cccc(OCCCNC(=O)c3ccc(CNC[C@H](O)c4ccc(O)c5[nH]c(=O)ccc45)cc3)c2)C1`, the inhibition at 3.167 h, 1000 µM in “in vivo [1]” was found to be 33%. In addition, the IC50 in [2] is 310 µM; in [11], 128 µM; with Trachea, 0.000126 µM; in [18], 0.0001 µM; in data set [22], 314 µM. For the same compound, the Emax at 0.0003 µmol/kg with Cavia porcellus [3], in the data set filed under Cavia porcellus [7] and in the data set with Cavia porcellus [12] was 89% throughout. Moreover, the inhibition in vivo at 0.0003 µmol/kg in the data set listed under Cavia porcellus [4] was 54%; in the data set filed under Cavia porcellus [5] it was 78%; in the data set on Cavia porcellus [13], 57%; in the data set with Cavia porcellus [14] it was 89%; in the data set on Cavia porcellus [20], 84%; in the data set with Cavia porcellus [23], 89%. In addition, in “in vivo [6]”, the inhibition at 3.167 h, 3000 µM is 43%. The compound also yielded a share remaining at 1 h, 1 µM in data set [8] of 91.1%. For the same compound, the hepatocyte CLint at 1.5 h, 1 µM was 3 µL/min/1e6 cells in the data set “in vitro [9]” and 12 µL/min/1e6 cells in the data set “in vitro [10]”. In the data set “in vivo [15]”, the clearance at 1 h was determined as 75 mL/min/kg. The figures for the half-life at 2 h, 5 µM in the data set “in vitro [16]”, in “in vitro [17]” and in the data set “in vitro [24]” were 1.3 h, 9 min and > 2.5 h, respectively. In addition, the Vd at 1 h in “in vivo [19]” was 0.75 L/kg. Moreover, the half-life in data set [21] is 25 h. The affinity in [25], expressed as Ki, was 0.0251 nM.

In the data set “in vivo [26]”, `C[N+]1(C)[C@@H]2C[C@@H](OC(=O)C(O)(c3cccs3)c3cccs3)C[C@H]1[C@@H]1O[C@@H]12` [TIOTROPIUM BROMIDE] showed an inhibition at 3.167 h, 300 µM of 77%.
